Experimental findings from US8445636B2, “Antimicrobial and anticancer lipopeptides” (Yeda Research & Development Co. Ltd., priority 2003, dated 2013) are described below.

What all share (type): cell-based
Test [1] deals with Candida albicans ATCC 10231. Description: microbe, parasite or virus in culture. Here is the method: (§1) The antifungal activity of the lipopeptides was examined in sterile 96-well plates (Nunc F96 microtiter plates) in a final volume of 200 μL as follows: 100 µl of a suspension containing fungi at a concentration of 1×10^4 Colony-Forming Units (CFU)/ml in culture medium (RPMI 1640, 0.165 M MOPS with L-glutamine, without NaHCO3) at pH 7.4 or pH 5.5 (adjustment of the pH was done by diluted solutions of HCl and NaOH) were added to 100 μl of water containing the peptide in serial 2-fold dilutions in water. The fungi were incubated in the presence of the lipopeptides for 24-48 h at 35° C. in a Binder KB115 incubator under agitation. Growth inhibition was determined by measuring the absorbance at 620 nm with a Microplate autoreader E1309 (Bio-Tek Instruments). Antifungal activity is expressed as the minimal inhibitory concentration (MIC), the concentration at which 100% inhibition of fungi growth was observed after the incubation time mentioned above. The fungi used were: Aspergillus niger ATCC 9642, Candida albicans ATCC 10231 and Cryptococcus neoformans ATCC 66031. If not indicated otherwise, the fungi growth was detected at pH 7.4.

Test [2] has as its system Cryptococcus neoformans ATCC 66031. Nature of the test: microbe, parasite or virus in culture. As to the method:
as §1

The test system of test [3] is Cryptococcus neoformans ATCC MYA-422. Description: microbe, parasite or virus in culture. The note with it: Cryptococcus neoformans; Table 9, short lipopeptides; pH 7.4; mean of 3 experiments, standard deviation of 25%; read-out: Minimal Inhibitory Concentration, Cyrptococcus neoformans (ATCC MYA-422).
In test [4] the test system is Aspergillus fumigatus ATCC 26430. Description: microbe, parasite or virus in culture.
For the next test, the system named is E. coli D21.
The subject of test [5] is Acinetobacter baumannii ATCC 19606. Here is the method: (§2) The antibacterial activity of the lipopeptides was examined in sterile 96-well plates (Nunc F96 microtiter plates) in a final volume of 100 μl as follows: Aliquots (50 μl) of a suspension containing bacteria at concentration of 1×10^6 Colony-Forming Units (CFU)/ml in culture LB (Lauria broth) medium (pH 7.4 or pH 5.5) were added to 50 μl of water containing the lipopeptide in serial 2-fold dilutions in water. Adjustment of the pH was done by diluted solutions of HCl and NaOH Inhibition of growth was determined by measuring the absorbance at 600 nm with a Microplate autoreader E1309 (Bio-Tek Instruments), after an incubation time of 18-20 h at 37° C. Antibacterial activities were expressed as the minimal inhibitory concentration (MIC), the concentration at which 100% inhibition of growth was observed after 18-20 h of incubation. The bacteria used were: Escherichia coli ATCC 25922, Acinetobacter baumannii ATCC 19606, Pseudomonas aeruginosa ATCC 27853, Staphylococcus aureus ATCC 6538P, Enterococcus faecalis ATCC 29212, Enterobacter cloacae ATCC 49141. The antibacterial activity of lipopeptides was also examined against resistant bacteria: methicilin-resistant Staphylococcus aureus (MRSA) ATCC 700698 and vancomycin-resistant Enterococcus faecium (VRE) ATCC 700221. If not indicated otherwise, the bacterial growth was detected at pH 7.4.

In test [6] the test system is Escherichia coli ATCC 25922. As to the method:
as §2

Test [7] deals with Pseudomonas aeruginosa ATCC 27853. As to the method: as §2
In test [8] the test system is Staphylococcus aureus ATCC 6538P. Here is the method: as §2

Converted amounts (≈) assume the structure as drawn. Where two headings read alike, the source gives them in different places. Non-standard residues stand in square brackets, D forms with d. Residues, ends and D or L forms follow the SMILES beside them. *: point of attachment. Lauroyl = CCCCCCCCCCCC(=O)* Some results are limits rather than exact numbers.

In the case of `C[C@@H]1[C@H](O)[C@@H](C)/C=C/C=C/C=C/C=C/C=C/C=C/C=C/[C@H](O[C@@H]2O[C@H](C)[C@@H](O)[C@H](N)[C@@H]2O)C[C@@H]2O[C@](O)(C[C@@H](O)C[C@@H](O)[C@H](O)CC[C@@H](O)C[C@@H](O)CC(=O)O[C@H]1C)C[C@H](O)[C@H]2C(=O)O` [Amphotericin, reference compound], the MIC in test [1] (Candida albicans, ATCC10231, Table 9, short lipopeptides, pH 7.4, mean of 3 experiments, standard deviation of 25%, read-out: Minimal Inhibitory Concentration, Candida Albicans (ATCC 10231)) is 0.625 µM (≈ 0.578 µg/mL); in test [1] (Candida albicans, ATCC10231, Table 12, with serum, pH 7.4, read-out: Minimal inhibitory concentrations, C. Albicans With serum), 0.78 µM (≈ 0.721 µg/mL); in [1] (Candida albicans, ATCC10231, Table 12, without serum, pH 7.4, read-out: Minimal inhibitory concentrations, C. Albicans Without serum), 3.12 µM (≈ 2.89 µg/mL); in test [1] (Candida albicans, ATCC10231, Table 13, pH 5.5, with serum, read-out: Minimal inhibitory concentrations, C. Albicans With serum) it was 0.78 µM (≈ 0.721 µg/mL); in test [1] (Candida albicans, ATCC10231, Table 13, pH 5.5, without serum, read-out: Minimal inhibitory concentrations, C. Albicans Without serum), 9.38 µM (≈ 8.66 µg/mL); in test [2] (Cryptococcus neoformans, ATCC66031, Table 12, with serum, pH 7.4, read-out: Minimal inhibitory concentrations, C. Neofor. With serum), under 0.78 µM. Also, the MIC in test [2] (Cryptococcus neoformans, ATCC66031, Table 12, without serum, pH 7.4, read-out: Minimal inhibitory concentrations, C. Neofor. Without serum) is under 0.78 µM; in [2] (Cryptococcus neoformans, ATCC66031, Table 13, pH 5.5, with serum, read-out: Minimal inhibitory concentrations, C. Neofor. With serum) it was under 0.78 µM; in test [2] (Cryptococcus neoformans, ATCC66031, Table 13, pH 5.5, without serum, read-out: Minimal inhibitory concentrations, C. Neofor. Without serum) it was 3.12 µM (≈ 2.89 µg/mL); in [3] it was 0.312 µM (≈ 0.288 µg/mL); in test [4] (Aspergillus fumigatus, ATCC26430, Table 9, short lipopeptides, pH 7.4, mean of 3 experiments, standard deviation of 25%, read-out: Minimal Inhibitory Concentration, Aspergillus Fomigatus (ATCC 26430)) it was 1.25 µM (≈ 1.16 µg/mL); in test [4] (Aspergillus fumigatus, ATCC26430, Table 12, with serum, pH 7.4, read-out: Minimal inhibitory concentrations, A. Fumig. With serum), under 0.78 µM. The MIC is 2.34 µM (≈ 2.16 µg/mL) in [4] (Aspergillus fumigatus, ATCC26430, Table 12, without serum, pH 7.4, read-out: Minimal inhibitory concentrations, A. Fumig. Without serum); under 0.78 µM in [4] (Aspergillus fumigatus, ATCC26430, Table 13, pH 5.5, with serum, read-out: Minimal inhibitory concentrations, A. Fumig. With serum); 3.12 µM (≈ 2.89 µg/mL) in [4] (Aspergillus fumigatus, ATCC26430, Table 13, pH 5.5, without serum, read-out: Minimal inhibitory concentrations, A. Fumig. Without serum).

Turning to `CCCCCCCCCCCC(=O)N[C@H](CC(C)C)C(=O)N[C@@H](CCCCN)C(=O)N[C@@H](Cc1c[nH]cn1)C(=O)N[C@H](CC(C)C)C(=O)N[C@H](CC(C)C)C(=O)N[C@@H](CCCCN)C(=O)N[C@@H](Cc1c[nH]cn1)C(=O)N[C@H](CC(C)C)C(=O)N[C@H](CC(C)C)C(=O)N[C@@H](CCCCN)C(=O)N[C@@H](Cc1c[nH]cn1)C(=O)N[C@H](CC(C)C)C(N)=O` [lipopeptide 28, (CH3-(CH2)10-CO-)-D-Leu-Lys-His-D-Leu-D-Leu-Lys-His-D-Leu-D-Leu-Lys-His-D-Leu-NH2] (Lauroyl-[dL]KH[dL][dL]KH[dL][dL]KH[dL]-NH2), the “Minimal inhibitory concentrations, E. Coli D21” value was over 100 µM in the test with E. coli D21 (D21, pH 5.5) and 50 µM (≈ 83.7 µg/mL) in the test with E. coli D21 (D21, pH 7.4). Also, the “Minimal inhibitory concentrations, A. baumannii ATCC 19606” value in test [5] (ATCC 19606, pH 5.5) is over 100 µM; in test [5] (ATCC 19606, pH 7.4) it was 50 µM (≈ 83.7 µg/mL). The “Minimal inhibitory concentrations, E. Coli ATCC 25922” value in test [6] (ATCC 25922, pH 5.5) is over 100 µM; in test [6] (ATCC 25922, pH 7.4) it was 100 µM (≈ 167 µg/mL). The “Minimal inhibitory concentrations, P. Aeruginosa ATCC 27853” value is over 100 µM in [7] (ATCC 27853, pH 5.5) and 50 µM (≈ 83.7 µg/mL) in [7] (ATCC 27853, pH 7.4). In addition, the “Minimal inhibitory concentrations, S. aureus II ATCC 6538P” value in [8] (ATCC 6538, pH 5.5) was over 100 µM; in test [8] (ATCC 6538, pH 7.4), 18.75 µM (≈ 31.4 µg/mL). The MIC was over 100 µM in test [1] (ATCC 10231, pH 5.5, read-out: Minimal inhibitory concentrations, C. Albicans With serum); 12.5 µM (≈ 20.9 µg/mL) in test [1] (ATCC 10231, pH 5.5, read-out: Minimal inhibitory concentrations, C. Albicans Without serum); over 100 µM in test [1] (ATCC 10231, pH 7.4, read-out: Minimal inhibitory concentrations, C. Albicans With serum); 12.5 µM (≈ 20.9 µg/mL) in [1] (ATCC 10231, pH 7.4, read-out: Minimal inhibitory concentrations, C. Albicans Without serum); 12.5 µM (≈ 20.9 µg/mL) in test [2] (ATCC 66031, pH 5.5, read-out: Minimal inhibitory concentrations, C. Neofor. With serum); under 0.78 µM in [2] (ATCC 66031, pH 5.5, read-out: Minimal inhibitory concentrations, C. Neofor. Without serum). Besides, the MIC in test [2] (ATCC 66031, pH 7.4, read-out: Minimal inhibitory concentrations, C. Neofor. With serum) was 6.25 µM (≈ 10.5 µg/mL); in test [2] (ATCC 66031, pH 7.4, read-out: Minimal inhibitory concentrations, C. Neofor. Without serum), 1.56 µM (≈ 2.61 µg/mL); in test [4] (ATCC 26430, pH 5.5, read-out: Minimal inhibitory concentrations, A. Fumig. With serum), 100 µM (≈ 167 µg/mL); in [4] (ATCC 26430, pH 5.5, read-out: Minimal inhibitory concentrations, A. Fumig. Without serum), 12.5 µM (≈ 20.9 µg/mL); in test [4] (ATCC 26430, pH 7.4, read-out: Minimal inhibitory concentrations, A. Fumig. With serum), 100 µM (≈ 167 µg/mL); in test [4] (ATCC 26430, pH 7.4, read-out: Minimal inhibitory concentrations, A. Fumig. Without serum), 25 µM (≈ 41.9 µg/mL).

For `CCCCCCCCCCCC(=O)N[C@H](CC(C)C)C(=O)N[C@@H](Cc1c[nH]cn1)C(=O)N[C@@H](Cc1c[nH]cn1)C(=O)N[C@H](CC(C)C)C(=O)N[C@H](CC(C)C)C(=O)N[C@@H](Cc1c[nH]cn1)C(=O)N[C@@H](Cc1c[nH]cn1)C(=O)N[C@H](CC(C)C)C(=O)N[C@H](CC(C)C)C(=O)N[C@@H](Cc1c[nH]cn1)C(=O)N[C@@H](Cc1c[nH]cn1)C(=O)N[C@H](CC(C)C)C(N)=O` [lipopeptide 26, (CH3-(CH2)10-CO-)-D-Leu-His-His-D-Leu-D-Leu-His-His-D-Leu-D-Leu-His-His-D-Leu-NH2] (Lauroyl-[dL]HH[dL][dL]HH[dL][dL]HH[dL]-NH2), the “Minimal inhibitory concentrations, E. Coli D21” value in the test with E. coli D21 (Table 6, pH 7.4) was over 100 µM; with E. coli D21 (Table 7, pH 5.5) it was 100 µM (≈ 170 µg/mL). The “Minimal inhibitory concentrations, A. baumannii ATCC 19606” value is 100 µM (≈ 170 µg/mL) in [5] (Table 6, pH 7.4) and over 100 µM in test [5] (Table 7, pH 5.5). Moreover, the “Minimal inhibitory concentrations, E. Coli ATCC 25922” value is over 100 µM in test [6] (Table 6, pH 7.4) and over 100 µM in [6] (Table 7, pH 5.5). Further, the “Minimal inhibitory concentrations, P. Aeruginosa ATCC 27853” value is over 100 µM in test [7] (Table 6, pH 7.4) and 100 µM (≈ 170 µg/mL) in test [7] (Table 7, pH 5.5). Also, the “Minimal inhibitory concentrations, S. aureus II ATCC 6538P” value in test [8] (Table 6, pH 7.4) is 100 µM (≈ 170 µg/mL); in [8] (Table 7, pH 5.5), over 100 µM. The MIC is reported as over 100 µM in test [1] (Table 12, with serum, pH 7.4, read-out: Minimal inhibitory concentrations, C. Albicans With serum); over 100 µM in [1] (Table 12, without serum, pH 7.4, read-out: Minimal inhibitory concentrations, C. Albicans Without serum); over 100 µM in test [1] (Table 13, pH 5.5, with serum, read-out: Minimal inhibitory concentrations, C. Albicans With serum); 9.375 µM (≈ 15.9 µg/mL) in test [1] (Table 13, pH 5.5, without serum, read-out: Minimal inhibitory concentrations, C. Albicans Without serum); 100 µM (≈ 170 µg/mL) in [2] (Table 12, with serum, pH 7.4, read-out: Minimal inhibitory concentrations, C. Neofor. With serum); 12.5 µM (≈ 21.3 µg/mL) in test [2] (Table 12, without serum, pH 7.4, read-out: Minimal inhibitory concentrations, C. Neofor. Without serum). The MIC is recorded as 50 µM (≈ 85.1 µg/mL) in test [2] (Table 13, pH 5.5, with serum, read-out: Minimal inhibitory concentrations, C. Neofor. With serum); 3.125 µM (≈ 5.32 µg/mL) in [2] (Table 13, pH 5.5, without serum, read-out: Minimal inhibitory concentrations, C. Neofor. Without serum); 100 µM (≈ 170 µg/mL) in test [4] (Table 12, with serum, pH 7.4, read-out: Minimal inhibitory concentrations, A. Fumig. With serum); over 100 µM in test [4] (Table 12, without serum, pH 7.4, read-out: Minimal inhibitory concentrations, A. Fumig. Without serum); 100 µM (≈ 170 µg/mL) in [4] (Table 13, pH 5.5, with serum, read-out: Minimal inhibitory concentrations, A. Fumig. With serum); 6.25 µM (≈ 10.6 µg/mL) in test [4] (Table 13, pH 5.5, without serum, read-out: Minimal inhibitory concentrations, A. Fumig. Without serum).
